# Experiments:
# Type in all cases: in vivo
# [1] = system: blackgrass (Alopecurus myosuroides); test: Test B postemergence; conditions: for Blackgrass plant response rating: 125 g ai/ha, scale 0 to 100 (0 no effect, 100 complete control); for Plant response rating, Blackgrass: 500 g ai/ha, scale 0 to 100
# Excerpt: (§1) Seeds selected from barnyardgrass (Echinochloa crus-galli), Surinam grass (Brachiaria decumbens), cocklebur (Xanthium strumarium), corn (Zea mays), crabgrass (Digitaria sanguinalis), giant foxtail (Setaria faberii), lambsquarters (Chenopodium album), morningglory (Ipomoea coccinea), pigweed (Amaranthus retroflexus), velvetleaf (Abutilon theophrasti), and wheat (Triticum aestivum) were planted and treated preemergence with test chemicals formulated in a non-phytotoxic solvent mixture which included a surfactant.
# (§2) At the same time, plants selected from these crop and weed species and also blackgrass (Alopecurus myosuroides) and wild oat (Avena fatua) were treated with postemergence applications of test chemicals formulated in the same manner. Plants ranged in height from 2 to 18 cm (1- to 4-leaf stage) for postemergence treatments. Plant species in the flooded paddy test consisted of rice (Oryza sativa), umbrella sedge (Cyperus difformis), duck salad (Heteranthera limosa) and barnyardgrass (Echinochloa crus-galli) grown to the 2-leaf stage for testing. Treated plants and controls were maintained in a greenhouse for 13 to 15 days, after which time all species were compared to controls and visually evaluated. Plant response ratings, summarized in Table B, are based on a scale of 0 to 100 where 0 is no effect and 100 is complete control. A dash (-) response means no test result.
# wild oat (Avena fatua) = test: Test B postemergence; conditions: for Oat, Wild plant response rating: 125 g ai/ha, scale 0 to 100 (0 no effect, 100 complete control); for Plant response rating, Oat, Wild: 500 g ai/ha, scale 0 to 100
# Excerpt: as §1, §2
# [2] = system: pigweed (Amaranthus retroflexus); test: Test B pre/postemergence
# Excerpt: as §1, §2
# corn (Zea mays) = test: Test B pre/postemergence
# Excerpt: as §1, §2
# [3] = system: barnyardgrass (Echinochloa crus-galli); test: Test B pre/postemergence
# Excerpt: as §1, §2
# [4] = system: velvetleaf (Abutilon theophrasti); test: Test B pre/postemergence
# Excerpt: as §1, §2
# [5] = system: lambsquarters (Chenopodium album); test: Test B pre/postemergence; conditions: Postemergence; for Lambsquarters plant response rating: 125 g ai/ha, scale 0 to 100 (0 no effect, 100 complete control); for Plant response rating, Lambsquarters: 500 g ai/ha, scale 0 to 100
# Excerpt: as §1, §2
# [6] = system: wheat (Triticum aestivum); test: Test B pre/postemergence
# Excerpt: as §1, §2
# [7] = system: crabgrass (Digitaria sanguinalis); test: Test B pre/postemergence
# Excerpt: as §1, §2
# [8] = system: morningglory (Ipomoea coccinea); test: Test B pre/postemergence
# Excerpt: as §1, §2
# [9] = system: Surinam grass (Brachiaria decumbens); test: Test B pre/postemergence
# Excerpt: as §1, §2
# [10] = system: giant foxtail (Setaria faberii); test: Test B pre/postemergence
# Excerpt: as §1, §2
# [11] = system: cocklebur (Xanthium strumarium); test: Test B pre/postemergence
# Excerpt: as §1, §2
# [12] = system: barnyardgrass (Echinochloa crus-galli); test: Test A pre/postemergence
# Method in brief: (§3)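 Greenhouse herbicide test with preemergence directed soil spray and postemergence foliar spray at the 1- to 2-leaf stage; visual control rating 0–100 versus untreated at ~10 days.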
# [13] = system: velvetleaf (Abutilon theophrasti); test: Test A pre/postemergence
# Method in brief: as §3
# [14] = system: crabgrass (Digitaria sanguinalis); test: Test A pre/postemergence
# Method in brief: as §3
# [15] = system: morningglory (Ipomoea spp.); test: Test A pre/postemergence
# Method in brief: as §3
# [16] = system: redroot pigweed (Amaranthus retroflexus); test: Test A pre/postemergence
# Method in brief: as §3
# [17] = system: giant foxtail (Setaria faberi); test: Test A pre/postemergence
# Method in brief: as §3
# [18] = Postemergence, 125 g ai/ha, scale 0 to 100 (0 no effect, 100 complete control)
# [19] = Postemergence, 500 g ai/ha, scale 0 to 100
# [20] = Preemergence, 125 g ai/ha, scale 0 to 100 (0 no effect, 100 complete control)
# [21] = Preemergence, 500 g ai/ha, scale 0 to 100 (0 no effect, 100 complete control)
# [22] = Postemergence, 125 g ai/ha, 0 to 100 scale (0 no effect, 100 complete control)
# [23] = Postemergence, 500 g ai/ha, 0 to 100 scale (0 no effect, 100 complete control)
# [24] = Preemergence, 125 g ai/ha, 0 to 100 scale where 0 is no effect and 100 is complete control, approximately ten days
# [25] = Preemergence, 500 g ai/ha, 0 to 100 scale where 0 is no effect and 100 is complete control, approximately ten days
structure (smiles),measurement,setting,value
CCOC(=O)c1nc(C2CC2)nc(NOCC(=O)O)c1Br [Compound 125],Blackgrass plant response rating,[1],0
same,"Plant response rating, Blackgrass",[1],20
same,"Oat, Wild plant response rating",wild oat (Avena fatua),0
same,"Plant response rating, Oat, Wild",wild oat (Avena fatua),20
same,Pigweed plant response rating,[2]; [18],60
same,"Plant response rating, Pigweed",[2]; [19],60
same,"Plant response rating, Pigweed",[2]; [20],30
same,"Plant response rating, Pigweed",[2]; [21],90
same,Corn plant response rating,corn (Zea mays); [18],0
same,"Plant response rating, Corn",corn (Zea mays); [19],0
same,"Plant response rating, Corn",corn (Zea mays); [20],0
same,"Plant response rating, Corn",corn (Zea mays); [21],0
same,Barnyardgrass plant response rating,[3]; [18],0
same,"Plant response rating, Barnyardgrass",[3]; [19],70
same,"Plant response rating, Barnyardgrass",[3]; [20],0
same,Velvetleaf plant response rating,[4]; [18],0
same,"Plant response rating, Velvetleaf",[4]; [19],50
same,"Plant response rating, Velvetleaf",[4]; [20],10
same,"Plant response rating, Velvetleaf",[4]; [21],90
same,Lambsquarters plant response rating,[5],60
same,"Plant response rating, Lambsquarters",[5],70
same,Wheat plant response rating,[6]; [18],0
same,"Plant response rating, Wheat",[6]; [19],0
same,"Plant response rating, Wheat",[6]; [20],0
same,"Plant response rating, Wheat",[6]; [21],0
same,Crabgrass plant response rating,[7]; [18],20
same,"Plant response rating, Crabgrass",[7]; [19],30
same,"Plant response rating, Crabgrass",[7]; [20],0
same,"Plant response rating, Crabgrass",[7]; [21],100
same,Morningglory plant response rating,[8]; [18],70
same,"Plant response rating, Morningglory",[8]; [19],90
same,"Plant response rating, Morningglory",[8]; [20],30
same,"Plant response rating, Morningglory",[8]; [21],100
same,Surinam Grass plant response rating,[9]; [18],0
same,"Plant response rating, Surinam Grass",[9]; [19],10
same,"Plant response rating, Surinam Grass",[9]; [20],0
same,"Plant response rating, Surinam Grass",[9]; [21],0
same,"Foxtail, Giant plant response rating",[10]; [18],0
same,"Plant response rating, Foxtail, Giant",[10]; [19],40
same,"Plant response rating, Foxtail, Giant",[10]; [20],0
same,"Plant response rating, Foxtail, Giant",[10]; [21],0
same,Cocklebur plant response rating,[11]; [18],40
same,"Plant response rating, Cocklebur",[11]; [19],60
same,"Plant response rating, Cocklebur",[11]; [20],30
same,"Plant response rating, Cocklebur",[11]; [21],90
CCOC(=O)c1nc(C2CC2)nc(NOC(C)(C)C)c1Br [Compound 55],Blackgrass plant response rating,[1],30
same,"Plant response rating, Blackgrass",[1],40
same,"Oat, Wild plant response rating",wild oat (Avena fatua),0
same,"Plant response rating, Oat, Wild",wild oat (Avena fatua),20
same,Pigweed plant response rating,[2]; [18],70
same,"Plant response rating, Pigweed",[2]; [19],80
same,"Plant response rating, Pigweed",[2]; [20],80
same,"Plant response rating, Pigweed",[2]; [21],100
same,Corn plant response rating,corn (Zea mays); [18],0
same,"Plant response rating, Corn",corn (Zea mays); [19],20
same,"Plant response rating, Corn",corn (Zea mays); [20],0
same,"Plant response rating, Corn",corn (Zea mays); [21],0
same,Barnyardgrass plant response rating,[3]; [18],0
same,"Plant response rating, Barnyardgrass",[3]; [19],50
same,"Plant response rating, Barnyardgrass",[3]; [20],0
same,"Plant response rating, Barnyardgrass",[3]; [21],60
same,Velvetleaf plant response rating,[4]; [18],10
same,"Plant response rating, Velvetleaf",[4]; [19],30
same,"Plant response rating, Velvetleaf",[4]; [20],50
same,"Plant response rating, Velvetleaf",[4]; [21],90
same,Lambsquarters plant response rating,[5],70
same,"Plant response rating, Lambsquarters",[5],90
same,Wheat plant response rating,[6]; [18],0
same,"Plant response rating, Wheat",[6]; [19],0
same,"Plant response rating, Wheat",[6]; [20],0
same,"Plant response rating, Wheat",[6]; [21],70
same,Crabgrass plant response rating,[7]; [18],0
same,"Plant response rating, Crabgrass",[7]; [19],30
same,"Plant response rating, Crabgrass",[7]; [20],50
same,"Plant response rating, Crabgrass",[7]; [21],60
same,Morningglory plant response rating,[8]; [18],80
same,"Plant response rating, Morningglory",[8]; [19],90
same,"Plant response rating, Morningglory",[8]; [20],80
same,"Plant response rating, Morningglory",[8]; [21],100
same,Surinam Grass plant response rating,[9]; [18],0
same,"Plant response rating, Surinam Grass",[9]; [19],0
same,"Plant response rating, Surinam Grass",[9]; [20],0
same,"Plant response rating, Surinam Grass",[9]; [21],50
same,"Foxtail, Giant plant response rating",[10]; [18],20
same,"Plant response rating, Foxtail, Giant",[10]; [19],20
same,"Plant response rating, Foxtail, Giant",[10]; [20],0
same,"Plant response rating, Foxtail, Giant",[10]; [21],0
same,Cocklebur plant response rating,[11]; [18],20
same,"Plant response rating, Cocklebur",[11]; [19],80
same,"Plant response rating, Cocklebur",[11]; [20],70
same,"Plant response rating, Cocklebur",[11]; [21],90
Nc1nc(C2CC2)nc(C(=O)OCCCO)c1Cl [Compound 143],"Plant response rating, Barnyardgrass",[12]; [22],55
same,"Plant response rating, Barnyardgrass",[12]; [23],75
same,"Plant response rating, Barnyardgrass",[12]; [24],65
same,"Plant response rating, Barnyardgrass",[12]; [25],85
same,"Plant response rating, Velvetleaf",[13]; [22],75
same,"Plant response rating, Velvetleaf",[13]; [23],95
same,"Plant response rating, Velvetleaf",[13]; [24],90
same,"Plant response rating, Velvetleaf",[13]; [25],95
same,"Plant response rating, Crabgrass",[14]; [22],5
same,"Plant response rating, Crabgrass",[14]; [23],60
same,"Plant response rating, Crabgrass",[14]; [24],70
same,"Plant response rating, Crabgrass",[14]; [25],95
same,"Plant response rating, Morningglory",[15]; [22],90
same,"Plant response rating, Morningglory",[15]; [23],90
same,"Plant response rating, Morningglory",[15]; [24],90
same,"Plant response rating, Morningglory",[15]; [25],100
same,"Plant response rating, Pigweed",[16]; [22],70
same,"Plant response rating, Pigweed",[16]; [23],90
same,"Plant response rating, Pigweed",[16]; [24],65
same,"Plant response rating, Pigweed",[16]; [25],95
same,"Plant response rating, Foxtail, Giant",[17]; [22],25
same,"Plant response rating, Foxtail, Giant",[17]; [23],80
same,"Plant response rating, Foxtail, Giant",[17]; [24],35
same,"Plant response rating, Foxtail, Giant",[17]; [25],75
COC(=O)COc1nc(-c2ccc(Cl)cc2)nc(N)c1Cl [Compound 119],"Plant response rating, Barnyardgrass",[12]; [22],0
same,"Plant response rating, Barnyardgrass",[12]; [23],5
same,"Plant response rating, Barnyardgrass",[12]; [24],0
same,"Plant response rating, Barnyardgrass",[12]; [25],10
same,"Plant response rating, Velvetleaf",[13]; [22],0
same,"Plant response rating, Velvetleaf",[13]; [23],10
same,"Plant response rating, Velvetleaf",[13]; [24],0
same,"Plant response rating, Velvetleaf",[13]; [25],0
same,"Plant response rating, Crabgrass",[14]; [22],0
same,"Plant response rating, Crabgrass",[14]; [23],0
same,"Plant response rating, Crabgrass",[14]; [24],0
same,"Plant response rating, Crabgrass",[14]; [25],0
same,"Plant response rating, Morningglory",[15]; [22],40
same,"Plant response rating, Morningglory",[15]; [23],35
same,"Plant response rating, Morningglory",[15]; [24],0
same,"Plant response rating, Morningglory",[15]; [25],0
same,"Plant response rating, Pigweed",[16]; [22],25
same,"Plant response rating, Pigweed",[16]; [23],45
same,"Plant response rating, Pigweed",[16]; [24],0
same,"Plant response rating, Pigweed",[16]; [25],0
same,"Plant response rating, Foxtail, Giant",[17]; [22],0
same,"Plant response rating, Foxtail, Giant",[17]; [23],0
same,"Plant response rating, Foxtail, Giant",[17]; [24],0
same,"Plant response rating, Foxtail, Giant",[17]; [25],0
